Ends that are not written are not given here.
Experiments:
[1] = as the pH drops from 7; cited from earlier work
[2] = Permeabilization of DPPC liposomes containing glucose oxidase (glucose oxidase/HRP colour reaction, scanned image); type: biochemical; settings: for Relative glucose oxidase activity (integrated digital values): DPPC; for Color apparent in the well: 30 minutes at room temperature
Method: (§1) The formation of a pore allows glucose into the liposome where it reacts with glucose oxidase to generate hydrogen peroxide. The hydrogen peroxide reacts with HRP, 4-AAP and TOOS (all outside the liposome) to generate an intense purple color.
(§2) The ability of the phosphorylated phylloxin to open liposomes in the presence of phosphatase was tested by preparing a developing solution of 0.5 mg/mL TOOS (3-(N-Ethyl-3-methylanilino)-2-hydroxypropanesulfonic acid sodium salt) (Sigma-Aldrich, St. Louis, Mo.), 1.0 mg/mL 4-AAP (4-amino-antipyrene) (Sigma-Aldrich), 12.5 mg/mL glucose and 0.0001 mg/mL HRP (horseradish peroxidase) (Pierce Biotechnology, Rockford, Ill.) in 50 mM TES.
(§3) 200 μL of this solution was placed in one well of 96-well plate containing 10 μL (0.004 mg/mL) of a DPPC liposome suspension. A second well was prepared similarly and 10 μL (0.3 mg/mL) of phylloxin solution in TES was also added. A third well was prepared similar to the second well. Alkaline phosphatase (10 μL at 2.5 mg/mL in TES) was added to the third well to a final concentration of 0.11 mg/mL. A similar set of wells was prepared with DOPC/cholesterol liposomes at the same concentration.
(§4) A weaker color was apparent in the well with DPPC liposomes, phylloxin and phosphatase, and weaker again in the well with DPPC liposomes and phylloxin. The remaining wells were essentially colorless. The image was recorded on an HP scanner and analyzed using an AlphaImager (Alpha Innotech, San Leandro, Calif.). The integrated digital values at 30 minutes are shown in Table 1 below, and at two hours in Table 2.

[3] = Permeabilization of DOPC/cholesterol liposomes containing glucose oxidase (glucose oxidase/HRP colour reaction, scanned image); type: biochemical; settings: for Relative glucose oxidase activity (integrated digital values): DOPC/Cholesterol
Method: as §1, §2, §3, §4

[4] = Permeabilization of DPPC liposomes containing glucose oxidase by phosphorylated dermatoxin (absorbance at 538 nm); type: biochemical; settings: Positive Control
Method: DPPC liposomes containing 5 mg/mL glucose oxidase were prepared as described in Example 2. Glucose oxidase activity was measured in a coupled enzyme reaction with horseradish peroxidase as described in Example 2. The various solutions were quickly added to each of the wells of a microplate using a multichannel pipette and the reactions were started (at T=0 hours) with the addition to the wells of a solution containing glucose and 4-AAP.
The ability of the phosphorylated dermatoxin to open liposomes in the presence of phosphatase was tested by preparing a developing solution as described in Example 2. One hundred-fifty microliters of the developing solution was placed in each well of a 96-well microplate. To each column in the plate was added 20 μL of TES buffer containing one of the following concentrations of unpurified dermatoxin: 3.3 mg/mL, 3.3×10^−1 mg/mL, 3.3×10^−2 mg/mL, 3.3×10^−3 mg/mL, 3.3×10^−4 mg/mL, 3.3×10^−5 mg/mL, 3.3×10^−6 mg/mL, or 3.3×10^−7 mg/mL. Negative control wells contained TES buffer with no dermatoxin. Positive control wells buffer contained TES buffer with Triton X-100. Ten-microliter aliquots of the following concentrations of DPPC liposomes (containing 5 mg/mL glucose oxidase) were added to wells in duplicate rows: 0.1 mg lipid/mL, 0.02 mg lipid/mL, 0.004 mg lipid/mL, or plain buffer. To one of the duplicate rows was added 20 μL of 2.5 mg/mL alkaline phosphatase in TES. The other duplicate row received 20 μL of TES buffer. Thus the final dermatoxin concentration in the well varied from […], and the final lipid concentration in the well ranged from 0.005 mg lipid/mL to 2.0×10^−4 mg lipid/mL.
The absorbance was recorded at 538 nm on a SpectraMax M5 plate reader (Molecular Devices, Sunnyvale, Calif.) after two hours incubation at room temperature, and also after overnight incubation (approximately 18 hours). Since the absorbance of several wells was saturated, the overnight samples were diluted 1:10 with 50 mmol TES and the absorbance of the diluted samples was measured.

[5] = 2-hour incubation, liposome + peptide
[6] = 2-hour incubation, liposome + peptide + phosphatase
[7] = 30-minute incubation, liposome + peptide
[8] = 30-minute incubation, liposome + peptide + phosphatase

GALA
pH at which the cytolytic peptide becomes activated [1]: about 5.0

GWMSKIASGIGTFLSGMQQ (GWMSKIASGIGTFLSGMQQ-NH2; not fully specified (residues 4, 8, 12, 15, N-terminus); also: phosphorylated) [Tetraphosphorylated Phylloxin, fully phosphorylated phylloxin made by Fmoc synthesis on Rink amide resin, HPLC purified]
Relative glucose oxidase activity (integrated digital values) [2, 5]: 173670 | Relative glucose oxidase activity (integrated digital values) [2, 6]: 217620 | Relative glucose oxidase activity (integrated digital values) [2, 7]: 84996 | Relative glucose oxidase activity (integrated digital values) [2, 8]: 97588 | Color apparent in the well ([2]; DPPC liposomes and phylloxin, no phosphatase): weaker again | Color apparent in the well ([2]; DPPC liposomes, phylloxin and phosphatase): weaker color | Phosphatase-dependent opening of liposomes ([2]; DPPC liposomes, with versus without alkaline phosphatase): still an effect, but it is not so pronounced | Relative glucose oxidase activity (integrated digital values) [3, 5]: 128550 | Relative glucose oxidase activity (integrated digital values) [3, 6]: 299950 | Relative glucose oxidase activity (integrated digital values) [3, 7]: 67680 | Relative glucose oxidase activity (integrated digital values) [3, 8]: 184416 | Color apparent in the well ([3]; 30 minutes at room temperature, DOPC/cholesterol liposomes, phylloxin and phosphatase): dark purple color | Opening of liposomes ([3]; DOPC/cholesterol liposomes, in the absence of alkaline phosphatase): little effect | Opening of liposomes ([3]; DOPC/cholesterol liposomes, in the presence of alkaline phosphatase): rapidly opens liposomes

Triton X-100 [Positive Control, reference compound]
Absorbance at 538 nm (cytolytic peptide activity) ([4]; 2 hrs, lipid conc. 0, with phosphatase): 2.272 absorbance units | Absorbance at 538 nm (cytolytic peptide activity) ([4]; 2 hrs, lipid conc. 0, without phosphatase): 0.123 absorbance units | Absorbance at 538 nm (cytolytic peptide activity) ([4]; 2 hrs, lipid conc. 0.004, with phosphatase): 0.132 absorbance units | Absorbance at 538 nm (cytolytic peptide activity) ([4]; 2 hrs, lipid conc. 0.004, without phosphatase): 0.210 absorbance units | Absorbance at 538 nm (cytolytic peptide activity) ([4]; 2 hrs, lipid conc. 0.02, with phosphatase): 0.296 absorbance units | Absorbance at 538 nm (cytolytic peptide activity) ([4]; 2 hrs, lipid conc. 0.02, without phosphatase): 0.602 absorbance units | Absorbance at 538 nm (cytolytic peptide activity) ([4]; 2 hrs, lipid conc. 0.1, with phosphatase): 0.557 absorbance units | Absorbance at 538 nm (cytolytic peptide activity) ([4]; 2 hrs, lipid conc. 0.1, without phosphatase): 2.220 absorbance units | Absorbance at 538 nm (cytolytic peptide activity) ([4]; 18 hrs (d), 1:10-diluted sample, lipid conc. 0, with phosphatase): 1.064 absorbance units | Absorbance at 538 nm (cytolytic peptide activity) ([4]; 18 hrs (d), 1:10-diluted sample, lipid conc. 0, without phosphatase): 0.055 absorbance units | Absorbance at 538 nm (cytolytic peptide activity) ([4]; 18 hrs (d), 1:10-diluted sample, lipid conc. 0.004, with phosphatase): 0.056 absorbance units | Absorbance at 538 nm (cytolytic peptide activity) ([4]; 18 hrs (d), 1:10-diluted sample, lipid conc. 0.004, without phosphatase): 0.097 absorbance units | Absorbance at 538 nm (cytolytic peptide activity) ([4]; 18 hrs (d), 1:10-diluted sample, lipid conc. 0.02, with phosphatase): 0.094 absorbance units | Absorbance at 538 nm (cytolytic peptide activity) ([4]; 18 hrs (d), 1:10-diluted sample, lipid conc. 0.02, without phosphatase): 0.274 absorbance units | Absorbance at 538 nm (cytolytic peptide activity) ([4]; 18 hrs (d), 1:10-diluted sample, lipid conc. 0.1, with phosphatase): 0.252 absorbance units | Absorbance at 538 nm (cytolytic peptide activity) ([4]; 18 hrs (d), 1:10-diluted sample, lipid conc. 0.1, without phosphatase): 1.018 absorbance units | Absorbance at 538 nm (cytolytic peptide activity) ([4]; 18 hrs, lipid conc. 0, with phosphatase): 4.000 absorbance units | Absorbance at 538 nm (cytolytic peptide activity) ([4]; 18 hrs, lipid conc. 0, without phosphatase): 0.158 absorbance units | Absorbance at 538 nm (cytolytic peptide activity) ([4]; 18 hrs, lipid conc. 0.004, with phosphatase): 0.158 absorbance units | Absorbance at 538 nm (cytolytic peptide activity) ([4]; 18 hrs, lipid conc. 0.004, without phosphatase): 0.524 absorbance units | Absorbance at 538 nm (cytolytic peptide activity) ([4]; 18 hrs, lipid conc. 0.02, with phosphatase): 0.524 absorbance units | Absorbance at 538 nm (cytolytic peptide activity) ([4]; 18 hrs, lipid conc. 0.02, without phosphatase): 2.043 absorbance units | Absorbance at 538 nm (cytolytic peptide activity) ([4]; 18 hrs, lipid conc. 0.1, with phosphatase): 2.043 absorbance units

Reference: patent US8936916B2, “Polypeptides for microbial detection” (3M Innovative Properties Company, priority 2008, dated 2015)
